Results on four compounds are retold here after ChEMBL document CHEMBL5212743, “Selectivity Literature for EUbOPEN Chemogenomics Library wave 3” (2023).

In experiment [1] the target is 5'-AMP-activated protein kinase catalytic subunit alpha-1 (Homo sapiens, UniProt Q13131). Nature of the experiment: Selectivity interaction (Upstate Kinase Profiler service (Millipore)) EUB0000056c PRKAA1.
For experiment [2], the target named is Calcium/calmodulin-dependent protein kinase type II subunit beta (Homo sapiens, UniProt Q13554). Nature of the experiment: Selectivity interaction (Upstate Kinase Profiler service (Millipore)) EUB0000056c CAMK2B.
The target of experiment [3] is T1, Bromodomain-containing protein 7 (Homo sapiens) (UniProt Q9NPI1).
T1 sequence (whole entry): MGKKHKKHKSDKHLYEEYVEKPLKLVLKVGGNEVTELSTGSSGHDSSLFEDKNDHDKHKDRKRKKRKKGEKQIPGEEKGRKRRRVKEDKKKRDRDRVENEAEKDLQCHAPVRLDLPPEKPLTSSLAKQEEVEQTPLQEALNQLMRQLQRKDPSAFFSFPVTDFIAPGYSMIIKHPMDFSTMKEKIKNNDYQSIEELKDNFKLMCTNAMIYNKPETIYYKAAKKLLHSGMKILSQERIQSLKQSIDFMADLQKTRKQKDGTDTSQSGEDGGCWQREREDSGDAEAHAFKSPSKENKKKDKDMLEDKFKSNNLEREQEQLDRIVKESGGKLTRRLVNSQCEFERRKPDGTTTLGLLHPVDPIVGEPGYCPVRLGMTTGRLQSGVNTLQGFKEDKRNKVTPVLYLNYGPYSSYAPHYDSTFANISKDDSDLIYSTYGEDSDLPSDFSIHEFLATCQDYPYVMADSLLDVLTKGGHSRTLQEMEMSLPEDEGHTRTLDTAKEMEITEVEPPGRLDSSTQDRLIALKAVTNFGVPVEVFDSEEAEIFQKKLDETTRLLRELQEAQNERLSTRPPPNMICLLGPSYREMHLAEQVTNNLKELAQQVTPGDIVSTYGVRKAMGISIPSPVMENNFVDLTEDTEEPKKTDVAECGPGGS
The experiment is described as follows: Selectivity interaction (Bromodomain panel (DSF assay)) EUB0000201c BRD7.

Experiment [4] concerns the target Bromodomain-containing protein 4 (Homo sapiens, UniProt O60885). Nature of the experiment: Selectivity interaction (Bromodomain panel (DSF assay)) EUB0000201c BRD4.
The target in experiment [5] is T2, Nucleosome-remodeling factor subunit BPTF (Homo sapiens, UniProt Q12830). Nature of the experiment: Selectivity interaction (Bromodomain panel (DSF assay)) EUB0000201c BPTF.
Experiment [6] addresses T3, Chromatin remodeling regulator CECR2 (Homo sapiens, UniProt Q9BXF3). Nature of the experiment: Selectivity interaction (Cellular FRAP assay) EUB0000201c CECR2.
Target sequence in this assay (Q9BXF3 whole entry): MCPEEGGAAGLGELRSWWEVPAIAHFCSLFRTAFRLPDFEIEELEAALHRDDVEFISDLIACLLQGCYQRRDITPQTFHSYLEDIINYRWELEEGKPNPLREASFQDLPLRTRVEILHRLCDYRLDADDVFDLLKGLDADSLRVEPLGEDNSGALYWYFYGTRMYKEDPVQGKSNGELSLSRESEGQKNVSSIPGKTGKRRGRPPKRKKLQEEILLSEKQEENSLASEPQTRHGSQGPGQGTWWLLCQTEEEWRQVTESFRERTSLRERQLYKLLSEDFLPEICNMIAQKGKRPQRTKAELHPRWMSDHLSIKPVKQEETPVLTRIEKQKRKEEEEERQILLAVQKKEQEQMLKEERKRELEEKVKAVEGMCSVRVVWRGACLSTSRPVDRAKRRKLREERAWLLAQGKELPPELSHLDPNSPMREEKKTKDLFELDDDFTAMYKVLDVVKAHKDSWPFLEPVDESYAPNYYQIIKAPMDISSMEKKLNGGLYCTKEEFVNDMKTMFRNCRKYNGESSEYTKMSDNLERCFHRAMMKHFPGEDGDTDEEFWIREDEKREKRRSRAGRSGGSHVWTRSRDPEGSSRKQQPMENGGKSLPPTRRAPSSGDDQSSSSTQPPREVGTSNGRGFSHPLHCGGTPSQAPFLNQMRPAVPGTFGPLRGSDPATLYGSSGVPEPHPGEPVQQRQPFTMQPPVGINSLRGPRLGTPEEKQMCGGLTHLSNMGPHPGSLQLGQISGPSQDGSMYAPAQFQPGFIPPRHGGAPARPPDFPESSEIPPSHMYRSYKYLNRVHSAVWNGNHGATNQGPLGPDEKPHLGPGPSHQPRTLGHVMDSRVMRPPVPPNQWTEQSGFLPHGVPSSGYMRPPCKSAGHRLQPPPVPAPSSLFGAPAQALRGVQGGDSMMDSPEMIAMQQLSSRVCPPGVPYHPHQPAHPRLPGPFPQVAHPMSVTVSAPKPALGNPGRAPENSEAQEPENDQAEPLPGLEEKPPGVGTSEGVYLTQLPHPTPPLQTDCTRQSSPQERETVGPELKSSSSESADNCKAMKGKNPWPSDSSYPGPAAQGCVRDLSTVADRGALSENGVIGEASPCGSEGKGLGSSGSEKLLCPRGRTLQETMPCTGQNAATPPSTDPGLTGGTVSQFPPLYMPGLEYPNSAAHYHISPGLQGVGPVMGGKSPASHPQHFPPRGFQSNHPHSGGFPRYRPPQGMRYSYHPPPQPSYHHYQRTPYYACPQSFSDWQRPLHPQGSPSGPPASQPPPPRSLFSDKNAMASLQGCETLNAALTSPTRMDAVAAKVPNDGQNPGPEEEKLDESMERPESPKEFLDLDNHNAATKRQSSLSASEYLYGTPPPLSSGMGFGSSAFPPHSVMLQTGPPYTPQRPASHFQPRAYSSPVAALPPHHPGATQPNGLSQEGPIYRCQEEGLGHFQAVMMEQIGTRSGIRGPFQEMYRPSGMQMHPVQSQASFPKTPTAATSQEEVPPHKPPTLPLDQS
Experiment [7] concerns the target SWI/SNF-related matrix-associated actin-dependent regulator of chromatin subfamily A member 4 (Homo sapiens) (UniProt P51532). Nature of the experiment: Selectivity interaction (Bromodomain panel (DSF assay)) EUB0000201c SMARCA4.
Experiment [8] deals with Transcription initiation factor TFIID subunit 1 (Homo sapiens, UniProt P21675). Nature of the experiment: Selectivity interaction (Bromodomain panel (DSF assay)) EUB0000201c TAF1.
Experiment [9] has as its target T3, Chromatin remodeling regulator CECR2. The experiment is described as follows: (§1) Selectivity interaction (Bromodomain panel (DSF assay)) EUB0000201c CECR2.
Target sequence in this assay (Q9BXF3 whole entry, looked up): as the sequence (Q9BXF3 whole entry) above
Experiment [10] has the same target. The experiment is described as §1. The source holds these as a separate data set.
Target sequence in this assay (Q9BXF3 whole entry, looked up): as the sequence (Q9BXF3 whole entry) above
For experiment [11], the system named is T4, Receptor-type tyrosine-protein kinase FLT3 (Homo sapiens), P36888 [D835Y].
T4 sequence (whole entry): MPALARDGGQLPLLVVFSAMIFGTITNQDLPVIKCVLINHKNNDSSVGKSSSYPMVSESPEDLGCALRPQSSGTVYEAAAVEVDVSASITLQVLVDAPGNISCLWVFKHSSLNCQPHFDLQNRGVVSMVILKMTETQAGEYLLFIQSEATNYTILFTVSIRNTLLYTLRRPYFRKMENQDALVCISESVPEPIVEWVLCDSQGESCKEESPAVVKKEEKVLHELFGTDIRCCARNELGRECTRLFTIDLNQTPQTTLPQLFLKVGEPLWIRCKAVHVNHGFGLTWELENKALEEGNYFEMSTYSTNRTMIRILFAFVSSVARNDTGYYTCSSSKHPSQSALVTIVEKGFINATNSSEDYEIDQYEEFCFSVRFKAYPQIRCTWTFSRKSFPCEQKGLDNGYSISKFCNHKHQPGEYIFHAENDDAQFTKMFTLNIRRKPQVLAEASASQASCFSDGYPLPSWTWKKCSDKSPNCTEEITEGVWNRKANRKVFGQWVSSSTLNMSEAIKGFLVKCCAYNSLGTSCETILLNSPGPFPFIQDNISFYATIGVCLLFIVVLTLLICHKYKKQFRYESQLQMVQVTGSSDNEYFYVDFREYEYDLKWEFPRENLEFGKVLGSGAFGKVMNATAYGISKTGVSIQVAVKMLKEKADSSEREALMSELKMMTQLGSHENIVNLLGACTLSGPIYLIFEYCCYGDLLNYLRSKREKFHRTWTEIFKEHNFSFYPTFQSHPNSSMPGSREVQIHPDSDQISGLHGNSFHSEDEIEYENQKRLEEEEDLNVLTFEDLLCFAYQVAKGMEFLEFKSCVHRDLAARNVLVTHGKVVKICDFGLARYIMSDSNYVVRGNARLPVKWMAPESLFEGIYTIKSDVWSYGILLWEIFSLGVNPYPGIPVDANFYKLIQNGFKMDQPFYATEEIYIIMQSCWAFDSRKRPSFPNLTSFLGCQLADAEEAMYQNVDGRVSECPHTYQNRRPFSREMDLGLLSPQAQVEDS
Particulars: at 1 µM.

In experiment [12] the target is Casein kinase II subunit alpha (Homo sapiens, UniProt P68400). The experiment is described as follows: Selectivity interaction (Kinase panel (radiometric kinase assay)) EUB0000677a CSNK2A1.
Sequence of Casein kinase II subunit alpha (P68400 whole entry): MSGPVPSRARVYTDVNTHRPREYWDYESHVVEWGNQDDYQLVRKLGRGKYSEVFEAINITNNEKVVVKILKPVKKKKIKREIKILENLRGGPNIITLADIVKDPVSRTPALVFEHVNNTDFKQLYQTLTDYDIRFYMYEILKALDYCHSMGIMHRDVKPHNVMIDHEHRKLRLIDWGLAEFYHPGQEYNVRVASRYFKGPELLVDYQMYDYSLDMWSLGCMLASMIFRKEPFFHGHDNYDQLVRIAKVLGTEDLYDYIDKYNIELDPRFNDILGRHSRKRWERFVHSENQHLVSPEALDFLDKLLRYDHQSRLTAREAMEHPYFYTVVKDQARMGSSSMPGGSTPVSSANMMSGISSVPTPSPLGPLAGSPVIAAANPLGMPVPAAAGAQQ
Experiment [13] deals with Cyclin-dependent kinase 9 (Homo sapiens) (UniProt P50750). The experiment is described as follows: Selectivity interaction (Kinase Profiler (Millipore)) EUB0000677a CDK9. Particulars: at 1 µM.
Sequence of Cyclin-dependent kinase 9 (Homo sapiens) (P50750 whole entry): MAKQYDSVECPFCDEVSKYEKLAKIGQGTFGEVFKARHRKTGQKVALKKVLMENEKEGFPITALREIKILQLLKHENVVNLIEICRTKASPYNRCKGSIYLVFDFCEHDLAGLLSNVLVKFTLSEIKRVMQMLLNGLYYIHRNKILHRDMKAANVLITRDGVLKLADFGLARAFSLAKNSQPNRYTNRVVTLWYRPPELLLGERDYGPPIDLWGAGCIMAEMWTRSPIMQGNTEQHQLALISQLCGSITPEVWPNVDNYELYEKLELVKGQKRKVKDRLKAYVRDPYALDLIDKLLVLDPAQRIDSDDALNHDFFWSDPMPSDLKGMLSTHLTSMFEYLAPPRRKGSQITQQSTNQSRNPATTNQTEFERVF
For experiment [14], the target named is Serine/threonine-protein kinase PLK1 (Homo sapiens, UniProt P53350). Particulars: at 1 µM.
Experiment [15] concerns the target T2, Nucleosome-remodeling factor subunit BPTF.
Experiment [16] deals with T1, Bromodomain-containing protein 7 (Homo sapiens). The experiment is described as follows: Selectivity interaction (Bromodomain panel (DSF assay)) EUB0000253b BRD7.
Experiment [17] deals with T5, Histone acetyltransferase KAT2A (Homo sapiens, UniProt Q92830). Nature of the experiment: Selectivity interaction (BROMOscan™ panel (DiscoverX)) EUB0000253b KAT2A.
T5 sequence (Q92830 whole entry): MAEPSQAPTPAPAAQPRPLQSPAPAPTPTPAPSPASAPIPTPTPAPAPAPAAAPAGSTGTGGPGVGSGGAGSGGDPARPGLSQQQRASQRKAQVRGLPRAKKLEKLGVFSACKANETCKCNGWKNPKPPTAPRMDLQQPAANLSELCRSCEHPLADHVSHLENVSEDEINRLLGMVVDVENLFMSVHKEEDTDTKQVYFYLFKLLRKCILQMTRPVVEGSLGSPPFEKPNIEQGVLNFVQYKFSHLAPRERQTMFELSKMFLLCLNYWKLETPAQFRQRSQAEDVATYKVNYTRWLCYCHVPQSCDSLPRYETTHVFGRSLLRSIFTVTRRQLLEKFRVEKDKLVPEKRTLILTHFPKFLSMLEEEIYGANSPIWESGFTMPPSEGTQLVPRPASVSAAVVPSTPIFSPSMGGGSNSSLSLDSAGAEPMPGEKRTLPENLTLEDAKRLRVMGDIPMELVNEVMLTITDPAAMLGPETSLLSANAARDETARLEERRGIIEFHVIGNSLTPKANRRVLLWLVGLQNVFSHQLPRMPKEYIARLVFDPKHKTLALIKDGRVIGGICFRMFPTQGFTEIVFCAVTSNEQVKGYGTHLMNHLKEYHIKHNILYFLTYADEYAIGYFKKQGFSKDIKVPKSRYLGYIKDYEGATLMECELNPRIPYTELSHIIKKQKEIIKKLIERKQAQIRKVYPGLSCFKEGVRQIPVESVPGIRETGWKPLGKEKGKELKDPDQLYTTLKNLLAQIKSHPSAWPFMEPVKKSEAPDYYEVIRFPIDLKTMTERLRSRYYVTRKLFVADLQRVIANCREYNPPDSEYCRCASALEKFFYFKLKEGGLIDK
For the next experiment, the target named is D(3) dopamine receptor (Homo sapiens, UniProt P35462). Nature of the experiment: Selectivity interaction (NIBR principial panel (12 GPCRs, 3 nuclear receptors, 3 transporters, and 7 other enzymes)) EUB0000253b DRD3.
Sequence of D(3) dopamine receptor (P35462 whole entry): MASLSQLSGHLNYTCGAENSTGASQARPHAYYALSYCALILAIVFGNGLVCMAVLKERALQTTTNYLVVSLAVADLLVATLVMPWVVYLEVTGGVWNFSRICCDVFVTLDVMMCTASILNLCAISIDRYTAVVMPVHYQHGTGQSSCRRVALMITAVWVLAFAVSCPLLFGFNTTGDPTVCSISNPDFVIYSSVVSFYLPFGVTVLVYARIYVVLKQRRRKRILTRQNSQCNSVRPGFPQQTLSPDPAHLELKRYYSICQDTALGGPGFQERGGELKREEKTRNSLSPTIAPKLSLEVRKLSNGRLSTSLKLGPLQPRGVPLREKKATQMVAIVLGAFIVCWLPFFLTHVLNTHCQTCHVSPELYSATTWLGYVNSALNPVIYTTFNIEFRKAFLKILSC
For the next experiment, the target named is Histamine H3 receptor (Homo sapiens, UniProt Q9Y5N1). Nature of the experiment: Selectivity interaction (NIBR principial panel (12 GPCRs, 3 nuclear receptors, 3 transporters, and 7 other enzymes)) EUB0000253b HRH3.
Sequence of Histamine H3 receptor (Q9Y5N1 whole entry): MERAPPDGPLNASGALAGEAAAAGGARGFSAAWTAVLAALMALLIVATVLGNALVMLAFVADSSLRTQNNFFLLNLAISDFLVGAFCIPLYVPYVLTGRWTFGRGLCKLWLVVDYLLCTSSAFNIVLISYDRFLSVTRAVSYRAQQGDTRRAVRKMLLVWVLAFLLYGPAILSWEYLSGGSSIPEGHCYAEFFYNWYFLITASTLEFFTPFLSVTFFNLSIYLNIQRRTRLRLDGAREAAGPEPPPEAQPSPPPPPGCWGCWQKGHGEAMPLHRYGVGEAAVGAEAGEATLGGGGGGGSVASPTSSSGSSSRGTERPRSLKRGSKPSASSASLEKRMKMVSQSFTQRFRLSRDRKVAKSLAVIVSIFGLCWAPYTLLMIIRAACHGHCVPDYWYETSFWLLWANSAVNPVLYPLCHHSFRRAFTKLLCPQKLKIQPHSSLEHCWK
Experiment [18] concerns the target T6, Histone acetyltransferase KAT2B (Homo sapiens, UniProt Q92831). The experiment is described as follows: Selectivity interaction (NanoBRET assay (HEK293T cells)) EUB0000253b KAT2B.
Target sequence in this assay (Q92831 whole entry): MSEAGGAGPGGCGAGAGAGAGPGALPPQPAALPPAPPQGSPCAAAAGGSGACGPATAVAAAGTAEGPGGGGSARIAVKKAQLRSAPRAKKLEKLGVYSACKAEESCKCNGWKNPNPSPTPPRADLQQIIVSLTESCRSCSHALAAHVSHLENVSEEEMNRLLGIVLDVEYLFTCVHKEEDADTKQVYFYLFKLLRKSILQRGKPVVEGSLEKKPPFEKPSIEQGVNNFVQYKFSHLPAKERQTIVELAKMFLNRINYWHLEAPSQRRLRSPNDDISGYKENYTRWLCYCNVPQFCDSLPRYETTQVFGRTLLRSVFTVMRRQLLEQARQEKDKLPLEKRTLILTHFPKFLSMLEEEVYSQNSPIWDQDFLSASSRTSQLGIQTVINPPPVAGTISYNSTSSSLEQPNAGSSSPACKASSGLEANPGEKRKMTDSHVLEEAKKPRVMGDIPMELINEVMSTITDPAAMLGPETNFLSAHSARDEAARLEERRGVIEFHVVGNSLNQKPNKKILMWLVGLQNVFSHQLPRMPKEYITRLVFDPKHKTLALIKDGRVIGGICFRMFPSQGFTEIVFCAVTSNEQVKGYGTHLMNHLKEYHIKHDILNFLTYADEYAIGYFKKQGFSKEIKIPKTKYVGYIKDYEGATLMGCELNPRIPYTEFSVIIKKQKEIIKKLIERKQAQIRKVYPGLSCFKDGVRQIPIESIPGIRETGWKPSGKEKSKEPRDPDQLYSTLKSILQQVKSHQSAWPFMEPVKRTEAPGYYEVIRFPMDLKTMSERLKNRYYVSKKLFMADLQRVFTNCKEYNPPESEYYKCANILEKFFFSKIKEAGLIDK
For experiment [19], the target named is T6, Histone acetyltransferase KAT2B. Nature of the experiment: Selectivity interaction (Bromodomain panel (DSF assay)) EUB0000253b KAT2B.
Target sequence in this assay (Q92831 whole entry, looked up): as the sequence (Q92831 whole entry) above
Experiment [20] addresses T3, Chromatin remodeling regulator CECR2. The experiment is described as follows: Selectivity interaction (Bromodomain panel (DSF assay)) EUB0000253b CECR2.
Target sequence in this assay (Q9BXF3 whole entry, looked up): as the sequence (Q9BXF3 whole entry) above
For experiment [21] the target is unchanged. The experiment is described as follows: Selectivity interaction (BROMOscan™ panel (DiscoverX)) EUB0000253b CECR2.
Target sequence in this assay (Q9BXF3 whole entry): as above
The target of experiment [22] is T6, Histone acetyltransferase KAT2B. Nature of the experiment: Selectivity interaction (BROMOscan™ panel (DiscoverX)) EUB0000253b KAT2B.
Target sequence in this assay (Q92831 whole entry): as the sequence (Q92831 whole entry) above
Experiment [23] addresses T2, Nucleosome-remodeling factor subunit BPTF. The source holds these as a separate data set.
The target in experiment [24] is T5, Histone acetyltransferase KAT2A. The experiment is described as follows: Selectivity interaction (NanoBRET assay (HEK293T cells)) EUB0000253b KAT2A.
A further experiment concerns the target T7, Adenosine receptor A3 (Homo sapiens, UniProt P0DMS8).
T7 sequence (P0DMS8 whole entry): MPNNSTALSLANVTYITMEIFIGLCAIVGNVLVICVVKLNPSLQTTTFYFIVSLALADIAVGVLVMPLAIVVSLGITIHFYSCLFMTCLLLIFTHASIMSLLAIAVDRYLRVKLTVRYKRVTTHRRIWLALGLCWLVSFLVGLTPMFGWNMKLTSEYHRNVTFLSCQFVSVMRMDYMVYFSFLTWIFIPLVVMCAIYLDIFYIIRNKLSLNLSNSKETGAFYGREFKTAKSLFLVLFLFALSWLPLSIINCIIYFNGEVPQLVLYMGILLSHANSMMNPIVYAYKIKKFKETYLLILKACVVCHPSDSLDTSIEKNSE
The experiment is described as follows: Selectivity interaction (NIBR principial panel (12 GPCRs, 3 nuclear receptors, 3 transporters, and 7 other enzymes)) EUB0000253b ADORA3.

For experiment [25], the target named is T3, Chromatin remodeling regulator CECR2. The experiment is described as follows: Selectivity interaction (NanoBRET assay (HEK293T cells)) EUB0000253b CECR2.
Target sequence in this assay (Q9BXF3 whole entry): as the sequence (Q9BXF3 whole entry) above

`Cc1ccc(-c2ccc3c(ccc4sc5c(c43)NC[C@@H](C)NC5=O)n2)cn1`: the figures for the IC50 in experiment [1] and in experiment [2] were 117 nM and 70 nM, respectively.

`CCCS(=O)(=O)c1nc(NC2CC2)cc(-c2ccc3c(ccn3C3CC(C)(C)NC(C)(C)C3)c2)n1`: the dTm in [3] was less than 2 K; in experiment [4], less than 2 K; in experiment [5] it was less than 2 K; in experiment [7], less than 2 K; in experiment [8], less than 2 K; in experiment [9], 15.5 K. In [10], this compound yielded a dTm of 12.5 K. Also, the EC50 in [6] amounted to 100 nM.

Turning to `CN1CCN(c2ccc(OC(F)(F)F)c(Nc3ncc4c(n3)-c3c(c(C(N)=O)nn3CCO)CC4)c2)CC1` [ONVANSERTIB], the % of control was 9% in experiment [11], 10% in experiment [13] and 3% in experiment [14]. The same compound registered an IC50 in [12] of 826 nM.

For `Cc1c(Nc2ccc(S(=O)(=O)N3CCN(C)CC3)cc2F)nc2ccc(-c3cnn(C4CC4)c3)cn2c1=O`, the dTm in experiment [15] came to 6.16 K; in experiment [16], 1.95 K; in experiment [19], 1.53 K; in [20] it was 2.48 K. Besides, the values for the Kd in [17], in experiment [21] and in experiment [22] were 62 nM, 66 nM and 74 nM, respectively. The IC50 at D(3) dopamine receptor is 3500 nM; against Histamine H3 receptor, 4000 nM; in experiment [18] it was greater than 10000 nM; in [23] it was 30 nM; in experiment [24], greater than 10000 nM; against Adenosine receptor A3, 4900 nM. This compound gave an IC50 in experiment [25] greater than 10000 nM.
